Reference: PubChem BioAssay (NCI)
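Step 1: Grow cells in 96-well plates. Step 2: Expose to compound for 48 hours at 5 concentrations. Step 3: Interpolate endpoints linearly; if unreached, use highest concentration. The concentration for full growth arrest is given as TGI.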

Columns and labels:
Test in all cases: NCI tumour cell line growth inhibition, 48 h
[1] = tested on: MOLT-4 leukemia
[2] = tested on: NCI/ADR-RES ovarian
[3] = tested on: RPMI-8226 leukemia
[4] = tested on: UO-31 renal
[5] = tested on: KM12 colon
[6] = tested on: UACC-62 melanoma
[7] = tested on: ACHN renal
[8] = tested on: SR leukemia
[9] = tested on: SNB-75 CNS
[10] = tested on: RXF 393 renal
[11] = tested on: U251 CNS
[12] = tested on: SF-268 CNS
[13] = tested on: TK-10 renal
[14] = tested on: HOP-92 NSCLC
[15] = tested on: HCT-116 colon
[16] = tested on: OVCAR-5 ovarian
[17] = tested on: UACC-257 melanoma
[18] = tested on: SK-MEL-2 melanoma
[19] = tested on: EKVX NSCLC

| SMILES | TGI [1] | TGI [2] | TGI [3] | TGI [4] | TGI [5] | TGI [6] | TGI [7] | TGI [8] | TGI [9] | TGI [10] | TGI [11] | TGI [12] | TGI [13] | TGI [14] | TGI [15] | TGI [16] | TGI [17] | TGI [18] | TGI [19] |
| --- | --- | --- | --- | --- | --- | --- | --- | --- | --- | --- | --- | --- | --- | --- | --- | --- | --- | --- | --- |
| O=C(NCC(=O)N1CCCC1C(=O)OC(=O)C1CCCN1C(=O)CNC(=O)OCc1ccccc1)OCc1ccccc1 (stereo unspecified) | 67.1 µM | > 100 µM | 70.2 µM | > 100 µM | > 100 µM | 34.6 µM | > 100 µM | > 100 µM | 57.2 µM | 64.5 µM | > 100 µM | 89 µM | 49.7 µM | > 100 µM | > 100 µM | 90.1 µM | 52.1 µM | 44.8 µM | > 100 µM |
| Cc1cc(C)nc(NC(=O)c2ccc(Br)s2)c1 | > 100 µM | > 100 µM | 16.6 µM | > 100 µM | > 100 µM | > 100 µM | > 100 µM | > 100 µM | > 100 µM | > 100 µM | > 100 µM | > 100 µM | > 100 µM | > 100 µM | > 100 µM | 62.4 µM | > 100 µM | > 100 µM | > 100 µM |
| Nc1ccc(-c2nc3cc(F)ccc3s2)cc1Cl | > 100 µM | > 100 µM | > 100 µM | > 100 µM | > 100 µM | > 100 µM | > 85 µM | 9.4 µM | 51.8 µM | > 100 µM | 55.4 µM | > 100 µM | 0.176 µM | > 78.9 µM | > 100 µM | 28.8 µM | > 100 µM | > 100 µM | > 48.2 µM |
| CC(=O)N(C)c1ccc(Nc2cc(C)[nH]c3ccc4ncnc4c23)cc1 | 13.7 µM | 453 µM | 82.7 µM | 56.3 µM | 27.6 µM | 31.8 µM | 16.3 µM | 23 µM | 30 µM | 22.9 µM | 30.6 µM | 38.7 µM | 48.3 µM | 14.7 µM | 16.5 µM | 29.4 µM | 26.7 µM | 23.2 µM | 50.5 µM |
| COC(=O)c1cc2c3c(ccc2[nH]1)N(C(=O)c1cc2cc(OC)c(OC)c(OC)c2[nH]1)CC3CCl (stereo unspecified) | > 100 µM | > 91.8 µM | > 21.5 µM | > 100 µM | > 100 µM | > 100 µM | > 100 µM | > 100 µM | > 100 µM | > 100 µM | > 100 µM | > 100 µM | > 100 µM | > 100 µM | > 100 µM | > 100 µM | > 100 µM | > 100 µM | > 100 µM |
| CCOC(=O)c1c(NC(=O)c2cccs2)sc2c1CCCC2 | > 100 µM | > 100 µM | > 100 µM | > 100 µM | > 100 µM | > 100 µM | > 100 µM | > 100 µM | 81.8 µM | 30.8 µM | > 91.9 µM | 73.6 µM | > 86.1 µM | > 100 µM | > 100 µM | > 100 µM | > 100 µM | > 100 µM | > 100 µM |
| Nc1ccc(Oc2ccc(C34CC5CC6C3CC3CC4C(C5)C6(c4ccc(Oc5ccc(N)cc5)cc4)C3)cc2)cc1 | 28.3 µM | > 100 µM | 47.5 µM | > 100 µM | > 100 µM | > 87.9 µM | > 100 µM | 40.1 µM | – | 47.8 µM | 14.9 µM | > 72 µM | > 68.6 µM | 11.7 µM | 41.1 µM | > 100 µM | > 32.5 µM | 23.6 µM | > 77.8 µM |
| COc1cc(C(=O)n2c3ccc(Br)cc3c3nc4ccccc4nc32)cc(OC)c1OC | > 100 µM | > 100 µM | > 100 µM | > 100 µM | > 100 µM | > 100 µM | > 100 µM | > 100 µM | > 100 µM | 66.4 µM | > 100 µM | > 100 µM | > 100 µM | > 100 µM | > 100 µM | > 100 µM | > 100 µM | > 100 µM | > 100 µM |
| O=C1NC(NNc2ccccc2)=N/C1=C\c1ccccc1O | > 100 µM | > 100 µM | > 100 µM | > 100 µM | > 100 µM | > 100 µM | > 100 µM | > 100 µM | > 100 µM | > 100 µM | > 100 µM | > 100 µM | > 100 µM | > 100 µM | > 100 µM | > 100 µM | > 100 µM | > 100 µM | > 100 µM |
| CN(Cc1cnc2nc(N)nc(N)c2n1)c1ccc(C(=O)NC(CCC(=O)NCCC(P(=O)(O)O)P(=O)(O)O)C(=O)O)cc1 (stereo unspecified) | > 100 µM | > 100 µM | > 100 µM | > 100 µM | > 100 µM | > 100 µM | > 100 µM | > 100 µM | > 100 µM | > 100 µM | > 100 µM | > 100 µM | > 100 µM | > 100 µM | > 100 µM | > 100 µM | > 100 µM | > 100 µM | > 100 µM |
| O=C(NC(Cc1c[nH]c2ccccc12)C(=O)Nc1ccc(Br)cc1)OCc1ccccc1 (stereo unspecified) | 38.9 µM | 54.3 µM | 34.2 µM | 27.4 µM | 21.7 µM | 22 µM | 60.3 µM | 47.4 µM | 34.7 µM | 22.2 µM | 25.1 µM | 37.7 µM | 52.8 µM | 19.1 µM | 23.7 µM | 35.1 µM | 23.5 µM | 19.2 µM | 22.3 µM |
| CC(C)(Cl)C(Br)CCC(C)(Cl)C(Br)CBr (stereo unspecified) | > 100 µM | 68 µM | 42.2 µM | > 100 µM | – | > 100 µM | 52.6 µM | 22.2 µM | 93.9 µM | 65.9 µM | 69.5 µM | > 100 µM | 99.6 µM | 46 µM | 47.5 µM | 48.7 µM | 51 µM | 35.4 µM | 84.2 µM |
